According to patent US20030195168A1, “Therapeutic agents - III” (priority 2000, published 2003):

Legend:
Format in all cases: cell-based
PKCα = target: T1, PKCα (Homo sapiens, UniProt P17252); conditions: HeLa
T1 construct: host or cells: HeLa cells
Protocol: (§1) Five EGFP-PKC isoforms (Clontech) were available for this experiment, enabling the screening of the three predominant PKC families (i.e. classical, novel and atypical PKCs). The members of the various PKC families are α, β, and γ (classical), θ (novel) and ζ (atypical).
(§2) HeLa cells were plated out in a 24-well plate containing coverslips and transfected with PKC isoforms fused to EGFP, using a commercially available effectine-transfection kit (QIAGEN, Pty. Ltd.). Cells were exposed to the transfection reagents for 16-24 hr. Subsequently, transfected cells were treated for one hour with TPA (100 ng/mL), bryostatin-1 (5 pg/mL), PEP003 (2.25 μg/mL; 5 μM) or PEP005 ([…]) 1.5 μM). Following treatment, cells were fixed on coverslips and mounted on glass slides. The slides were subsequently examined visually by fluorescence microscopy, photographed, and over 150 cells were counted/treatment/PKC isoform. Counted cells were classified according to the localisation of the PKC-EGFP fluorescence as either cytoplasmic or plasma membrane using ImagePro™ 4.1 (FIG. 5). […] The number of these cells was also counted.

PKCβ = target: T2, PKCβ (Homo sapiens, UniProt P05771); test: EGFP-PKC isoform translocation in HeLa cells
T2 construct: host or cells: HeLa cells
Protocol: as §1
as §2, with “counted. Results are presented as an average and standard deviation of percentages of cells (Table 1).” for “counted.”

PKCγ = target: T3, PKCγ (Homo sapiens, UniProt P05129); test: EGFP-PKC isoform translocation in HeLa cells
T3 construct: host or cells: HeLa cells
Protocol: as §1
as §2, with “counted. Results are presented as an average and standard deviation of percentages of cells (Table 1).” for “counted.”

PKCζ = target: T4, PKCζ (Homo sapiens, UniProt Q05513); test: EGFP-PKC isoform translocation in HeLa cells; conditions: one hour, TPA 100 ng/mL, bryostatin-1 5 pg/mL, PEP003 2.25 μg/mL (5 μM), PEP005 670 μg/mL (1.5 μM)
T4 construct: host or cells: HeLa cells
T4 sequence (Q05513 1-592): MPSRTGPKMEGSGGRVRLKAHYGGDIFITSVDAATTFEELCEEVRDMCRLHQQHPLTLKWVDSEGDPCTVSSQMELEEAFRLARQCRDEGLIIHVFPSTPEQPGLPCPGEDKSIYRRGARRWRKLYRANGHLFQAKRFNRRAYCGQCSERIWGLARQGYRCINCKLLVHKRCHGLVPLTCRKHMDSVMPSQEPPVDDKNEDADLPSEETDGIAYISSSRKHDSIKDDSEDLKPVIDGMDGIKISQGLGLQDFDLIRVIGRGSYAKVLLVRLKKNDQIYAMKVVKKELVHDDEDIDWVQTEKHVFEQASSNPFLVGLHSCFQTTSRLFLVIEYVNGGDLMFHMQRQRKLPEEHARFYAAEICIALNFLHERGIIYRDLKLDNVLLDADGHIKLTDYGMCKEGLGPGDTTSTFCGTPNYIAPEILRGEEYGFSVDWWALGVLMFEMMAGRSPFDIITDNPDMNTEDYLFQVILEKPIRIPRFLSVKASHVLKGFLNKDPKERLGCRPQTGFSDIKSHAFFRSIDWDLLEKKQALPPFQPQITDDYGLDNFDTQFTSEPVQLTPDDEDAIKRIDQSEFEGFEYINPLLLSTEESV
Protocol: as §1
as §2, with “counted. Results are presented as an average and standard deviation of percentages of cells (Table 1).” for “counted.”

PKCθ = target: T5, PKCθ (Homo sapiens, UniProt Q04759); test: EGFP-PKC isoform translocation in HeLa cells; conditions: one hour, TPA 100 ng/mL, bryostatin-1 5 pg/mL, PEP003 2.25 μg/mL (5 μM), PEP005 670 μg/mL (1.5 μM)
T5 construct: host or cells: HeLa cells
Protocol: as §1
as §2, with “counted. Results are presented as an average and standard deviation of percentages of cells (Table 1).” for “counted.”

[1] = one hour, TPA 100 ng/mL, bryostatin-1 5 pg/mL, PEP003 2.25 μg/mL (5 μM), PEP005 670 μg/mL (1.5 μM)

T2 sequence (P05771 whole entry, species assumed, canonical isoform): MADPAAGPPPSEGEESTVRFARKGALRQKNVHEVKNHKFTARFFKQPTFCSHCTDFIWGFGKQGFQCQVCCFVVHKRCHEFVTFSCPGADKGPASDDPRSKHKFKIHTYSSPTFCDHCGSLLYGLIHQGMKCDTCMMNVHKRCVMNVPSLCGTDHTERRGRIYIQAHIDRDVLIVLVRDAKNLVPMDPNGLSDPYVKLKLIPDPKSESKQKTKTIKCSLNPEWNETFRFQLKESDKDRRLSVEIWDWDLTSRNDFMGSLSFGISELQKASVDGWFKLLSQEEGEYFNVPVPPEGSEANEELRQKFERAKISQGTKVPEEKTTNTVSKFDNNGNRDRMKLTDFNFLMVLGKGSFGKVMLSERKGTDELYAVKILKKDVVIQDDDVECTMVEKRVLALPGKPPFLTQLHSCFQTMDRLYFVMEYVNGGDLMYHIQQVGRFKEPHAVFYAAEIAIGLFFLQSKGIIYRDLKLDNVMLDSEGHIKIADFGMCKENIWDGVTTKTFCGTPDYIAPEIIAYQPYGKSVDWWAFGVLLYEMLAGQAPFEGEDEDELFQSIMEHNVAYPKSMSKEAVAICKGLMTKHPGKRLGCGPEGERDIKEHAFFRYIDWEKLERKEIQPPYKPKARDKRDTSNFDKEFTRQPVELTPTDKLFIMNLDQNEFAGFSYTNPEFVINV
T5 sequence (Q04759 whole entry, canonical isoform): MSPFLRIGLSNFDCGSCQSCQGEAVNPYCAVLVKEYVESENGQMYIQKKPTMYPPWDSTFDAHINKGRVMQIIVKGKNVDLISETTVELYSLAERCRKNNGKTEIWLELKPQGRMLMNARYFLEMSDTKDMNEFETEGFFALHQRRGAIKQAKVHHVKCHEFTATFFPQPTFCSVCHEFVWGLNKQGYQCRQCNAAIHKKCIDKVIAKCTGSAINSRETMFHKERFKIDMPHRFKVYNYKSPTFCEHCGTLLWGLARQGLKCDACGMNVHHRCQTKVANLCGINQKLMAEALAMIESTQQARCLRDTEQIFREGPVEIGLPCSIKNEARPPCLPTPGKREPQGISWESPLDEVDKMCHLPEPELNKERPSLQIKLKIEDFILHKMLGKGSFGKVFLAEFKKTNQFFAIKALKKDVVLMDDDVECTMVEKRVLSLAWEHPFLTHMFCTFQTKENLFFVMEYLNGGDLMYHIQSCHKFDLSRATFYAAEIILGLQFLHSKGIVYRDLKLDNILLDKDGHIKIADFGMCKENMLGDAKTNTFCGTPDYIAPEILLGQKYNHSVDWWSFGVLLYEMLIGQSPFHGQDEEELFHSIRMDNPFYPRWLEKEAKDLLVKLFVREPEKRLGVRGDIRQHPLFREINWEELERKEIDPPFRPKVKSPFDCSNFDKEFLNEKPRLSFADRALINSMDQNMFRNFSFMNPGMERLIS

## CCCCCCCCCCCCCC(=O)O[C@@H]1[C@@H](C)[C@@]2(O)[C@@H](C=C(CO)C[C@]3(O)C(=O)C(C)=C[C@@H]23)C2C(C)(C)[C@@]21OC(C)=O (single isomer, unassigned) [TPA]
PKCα; one hour treatment
  number of PKCα transfected cells displaying Golgi-like fluorescence: increase in the number of cells displaying Golgi-like fluorescence
PKCα; one hour, TPA 100 ng/mL, bryostatin-1 5 pg/mL, PEP003 2.25 μg/mL (5 μM)
  translocation of PKCα to the plasma membrane: translocated from the cytoplasm to the plasma membrane
PKCβ; one hour treatment
  number of PKCβ transfected cells with Golgi-like fluorescence: increase in Golgi-Tike fluorescence
PKCβ; [1]
  translocation of PKCβ to the plasma membrane: translocated from the cytoplasm to the plasma membrane
PKCγ; one hour treatment
  number of PKCγ transfected cells displaying Golgi-like fluorescence: increase in the number of cells displaying Golgi-like fluorescence
PKCγ; [1]
  translocation of PKCγ to the plasma membrane: translocated from the cytoplasm to the plasma membrane
PKCζ
  translocation of PKCζ: fail to induce translocation
PKCθ
  translocation of PKCθ: translocated
